Assay results reported in patent US20240182531A1, “KV1.3 Blockers” (priority 2021, published 2024).
Where a SMILES comes first, the peptide text is derived from it. Bridges are numbered along the chain shown (N, C = ends). [ ]: non-standard residue; d: D form. Agp = N=C(N)NC[C@H](N)C(=O)O; Nle = CCCC[C@H](N)C(=O)O; Dab = NCC[C@H](N)C(=O)O

What was measured:
[1] = target: human Kv1.6 potassium ion channel (human) (UniProt P17658); test: cell-based or functional assay
[2] = target: human Kv1.2 potassium ion channel (human) (UniProt P16389); test: cell-based or functional assay
human Kv1.2 potassium ion channel (human), sequence (P16389 whole entry): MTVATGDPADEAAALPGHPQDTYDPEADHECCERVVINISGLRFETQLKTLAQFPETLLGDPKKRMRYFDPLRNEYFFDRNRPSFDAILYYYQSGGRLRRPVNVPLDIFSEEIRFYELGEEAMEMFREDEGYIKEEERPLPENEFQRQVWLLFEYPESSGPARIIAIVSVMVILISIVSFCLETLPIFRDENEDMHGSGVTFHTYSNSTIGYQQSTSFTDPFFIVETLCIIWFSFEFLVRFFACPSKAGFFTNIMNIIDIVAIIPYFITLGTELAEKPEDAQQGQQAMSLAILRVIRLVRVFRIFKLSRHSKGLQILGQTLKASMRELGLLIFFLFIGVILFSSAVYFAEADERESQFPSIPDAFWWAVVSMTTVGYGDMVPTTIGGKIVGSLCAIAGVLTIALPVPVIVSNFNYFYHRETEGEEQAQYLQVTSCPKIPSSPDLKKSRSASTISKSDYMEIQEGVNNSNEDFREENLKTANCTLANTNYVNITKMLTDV

[3] = target: human Kv1.3 (potassium voltage-gated channel subfamily A member 3) (human) (UniProt P22001); test: cell-based or functional assay
human Kv1.3 (potassium voltage-gated channel subfamily A member 3) (human), sequence (P22001 whole entry): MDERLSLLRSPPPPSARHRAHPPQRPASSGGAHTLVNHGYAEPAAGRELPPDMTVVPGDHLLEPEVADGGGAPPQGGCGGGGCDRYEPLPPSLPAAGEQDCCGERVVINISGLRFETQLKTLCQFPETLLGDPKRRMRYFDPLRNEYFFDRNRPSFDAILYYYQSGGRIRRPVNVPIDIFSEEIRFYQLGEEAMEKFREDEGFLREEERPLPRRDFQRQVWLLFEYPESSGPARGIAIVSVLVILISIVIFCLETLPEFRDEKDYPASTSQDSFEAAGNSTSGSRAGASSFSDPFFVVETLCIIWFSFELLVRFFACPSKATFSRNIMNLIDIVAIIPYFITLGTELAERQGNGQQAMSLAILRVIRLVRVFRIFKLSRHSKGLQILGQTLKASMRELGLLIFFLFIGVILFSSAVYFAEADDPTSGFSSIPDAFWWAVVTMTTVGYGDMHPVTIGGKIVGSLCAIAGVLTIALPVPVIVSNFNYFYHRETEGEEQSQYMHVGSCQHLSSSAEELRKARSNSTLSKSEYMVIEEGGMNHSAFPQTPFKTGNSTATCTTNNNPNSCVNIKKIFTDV

[4] = target: T1, human Kv1.2 (Homo sapiens, UniProt P16389); test: cell-based; conditions: for IC50: CHO cells, QPatch whole-cell, read-out: Potency IC50 Kv1.2; for Selectivity ratio Kv1.2/Kv1.3: ratio of patch clamp IC50 values
T1 construct: expressed in transfected cells; host or cells: CHO
T1 sequence (P16389 whole entry): as the sequence (P16389 whole entry) above

[5] = target: T2, human Kv1.6 (Homo sapiens, UniProt P17658); test: cell-based; conditions: for IC50: CHO cells, QPatch whole-cell, read-out: Potency IC50 Kv1.6; for Selectivity ratio Kv1.6/Kv1.3: ratio of patch clamp IC50 values
T2 construct: expressed in transfected cells; host or cells: CHO
T2 sequence (P17658 whole entry): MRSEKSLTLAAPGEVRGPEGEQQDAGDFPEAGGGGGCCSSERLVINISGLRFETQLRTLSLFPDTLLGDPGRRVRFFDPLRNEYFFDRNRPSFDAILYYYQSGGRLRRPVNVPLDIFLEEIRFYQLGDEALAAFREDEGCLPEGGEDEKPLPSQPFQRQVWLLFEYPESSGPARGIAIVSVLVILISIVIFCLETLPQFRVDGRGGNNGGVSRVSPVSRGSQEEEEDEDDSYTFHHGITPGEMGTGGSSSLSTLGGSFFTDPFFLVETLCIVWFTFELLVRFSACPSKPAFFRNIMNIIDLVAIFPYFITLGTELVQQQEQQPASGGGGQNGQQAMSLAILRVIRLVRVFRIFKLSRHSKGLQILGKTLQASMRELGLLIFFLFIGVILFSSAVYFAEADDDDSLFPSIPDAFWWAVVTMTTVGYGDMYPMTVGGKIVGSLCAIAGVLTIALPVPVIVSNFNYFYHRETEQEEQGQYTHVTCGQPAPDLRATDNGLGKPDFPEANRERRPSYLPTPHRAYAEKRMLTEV

[6] = target: T3, human Kv1.3 (Homo sapiens, UniProt P22001); test: cell-based; conditions: CHO cells, QPatch whole-cell; read-out: Potency IC50 Kv1.3
T3 construct: expressed in transfected cells; host or cells: CHO
T3 sequence (P22001 whole entry): as the sequence (P22001 whole entry) above

[7] = target: T4, human Kv1.1 (Homo sapiens, UniProt Q09470); test: cell-based; conditions: for IC50: CHO cells, QPatch whole-cell, read-out: Potency IC50 Kv1.1; for Selectivity ratio Kv1.1/Kv1.3: ratio of patch clamp IC50 values
T4 construct: expressed in transfected cells; host or cells: CHO
T4 sequence (Q09470 whole entry): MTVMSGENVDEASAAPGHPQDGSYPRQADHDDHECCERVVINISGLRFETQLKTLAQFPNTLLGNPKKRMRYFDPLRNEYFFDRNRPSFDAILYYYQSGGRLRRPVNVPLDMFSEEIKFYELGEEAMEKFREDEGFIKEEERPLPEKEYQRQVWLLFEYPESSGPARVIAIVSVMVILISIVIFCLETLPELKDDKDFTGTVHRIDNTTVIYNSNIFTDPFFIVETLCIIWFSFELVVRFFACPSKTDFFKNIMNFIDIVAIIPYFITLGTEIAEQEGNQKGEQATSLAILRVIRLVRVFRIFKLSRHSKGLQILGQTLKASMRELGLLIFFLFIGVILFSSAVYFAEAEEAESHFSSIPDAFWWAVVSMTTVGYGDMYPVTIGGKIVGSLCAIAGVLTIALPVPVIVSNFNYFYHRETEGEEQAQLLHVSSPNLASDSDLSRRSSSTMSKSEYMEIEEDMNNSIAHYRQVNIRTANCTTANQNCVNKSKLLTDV

[8] = target: T5, human Kv1.3 voltage-gated K+ channel (Homo sapiens, UniProt P22001); test: Kv1.3 blocker activity in FLIPR thallium assay; format: cell-based
T5 construct: host or cells: CHO-DUKX
T5 sequence (P22001 whole entry): as the sequence (P22001 whole entry) above
In short: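 CHO-DUKX cells stably expressing Kv1.3 were pre-incubated with compound for 30 min at 37° C in buffer with 0.02% w/v casein. Depolarization used final stimulus buffer with 5 mM K2SO4 and 1 mM Tl2SO4. Thallium-flux fluorescence was read at maximum response at 50 s, 37° C, and IC50 derived.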

[9] = target: human Kv1.1 potassium ion channel (human) (UniProt Q09470); test: cell-based or functional assay
human Kv1.1 potassium ion channel (human), sequence (Q09470 whole entry): as the sequence (Q09470 whole entry) above

[10] = Pharmacokinetic characterisation according to example 6 of PCT/EP2020/076187; conditions: in vivo; dose 70 nmol/kg
Protocol: The pharmacokinetic characterization of compound 14 were performed according to the method described in example 6 of international patent application PCT/EP2020/076187.

[11] = target: Rat whole blood (Rattus norvegicus, UniProt P15384); format: cell-based; conditions: IL-17A release, thapsigargin, 24 Hr, at least 2 replicates
Rat whole blood, sequence (P15384 whole entry): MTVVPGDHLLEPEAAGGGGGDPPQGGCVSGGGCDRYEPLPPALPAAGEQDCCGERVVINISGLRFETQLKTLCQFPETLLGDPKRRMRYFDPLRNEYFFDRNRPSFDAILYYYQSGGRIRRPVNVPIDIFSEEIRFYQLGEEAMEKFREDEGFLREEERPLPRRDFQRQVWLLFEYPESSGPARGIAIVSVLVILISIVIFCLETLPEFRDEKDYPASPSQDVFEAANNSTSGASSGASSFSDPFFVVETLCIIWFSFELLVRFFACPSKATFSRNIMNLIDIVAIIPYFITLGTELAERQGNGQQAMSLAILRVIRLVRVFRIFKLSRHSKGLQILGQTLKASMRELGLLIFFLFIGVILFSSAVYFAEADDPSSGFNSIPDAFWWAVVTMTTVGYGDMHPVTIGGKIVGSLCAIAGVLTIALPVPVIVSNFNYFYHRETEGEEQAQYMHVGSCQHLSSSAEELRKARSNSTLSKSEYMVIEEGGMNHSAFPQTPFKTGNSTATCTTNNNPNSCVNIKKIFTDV

[12] = target: human Kv1.3 voltage-gated K+ channel (potassium voltage-gated channel subfamily A member 3) (human) (UniProt P22001); test: cell-based or functional assay
human Kv1.3 voltage-gated K+ channel (potassium voltage-gated channel subfamily A member 3) (human), sequence (P22001 whole entry): as the sequence (P22001 whole entry) above

[13] = Pharmacokinetic characterisation after single s.c. injection in Sprague Dawley rats; conditions: male, rat, plasma, sc, 100 nmol/kg
Protocol: Sprague Dawley (males with a body weight of approximately 250-350 g) were given a single subcutaneous (s.c.) injection of each peptide to be tested.
Following s.c. administration of the selected compounds (dose 100 nmol/kg, dosing volume either 2 mL/kg), blood samples were drawn at 5 min, 15 min, 30 min, 60 min, 2 h, 3 h, 4 h, 6 h, 8 h post-dose. At each sampling time point, samples from the rats were drawn by sublingual bleeding. After last sampling the rats were sacrificed by O2/CO2 anaesthesia. The dosing vehicle was 10 mM phosphate, 0.8% NaCl, 0.05% Polysorbate 20 (pH 6.0).
Plasma samples were analyzed after solid phase extraction (SPE) by liquid chromatography mass spectrometry (LC-MS/MS). Mean plasma concentrations were used for calculation of the pharmacokinetic parameters using the non-compartmental approach in Phoenix WinNonlin 6.4 or a later version. Plasma terminal elimination half-life (T½) was determined as In(2)/λz where λz is the magnitude of the slope of the log linear regression of the log concentration versus time profile during the terminal phase. AUCinf is the area under the plasma concentration—time curve extrapolated to infinity (AUCinf=AUClast+Clast/λz, where Clast is the last observed plasma concentration). Cmax is the maximum observed concentration, occurring at Tmax.

human Kv1.6 potassium ion channel (human), sequence (P17658 whole entry): as the sequence (P17658 whole entry) above

## ShK (peptide)
[1]
  Potency IC50 (nM) Kv1.6: 0.19 nM
[2]
  Potency IC50 (nM) Kv1.2: 11 nM
[3]
  Potency IC50 (nM) Kv1.3: 0.017 nM

## CCCC[C@H](NC(=O)[C@@H]1CCCN1)C(=O)N[C@@H](CCC(=O)O)C(=O)N[C@@H](CCCC)C(=O)N[C@@H](CCCNC(=N)N)C(=O)N[C@H]1CSSC[C@@H]2NC(=O)[C@H](CCCCN)NC(=O)CNC(=O)[C@H](Cc3ccccc3)NC(=O)[C@H]([C@@H](C)CC)NC(=O)[C@H](CO)NC(=O)CNC(=O)[C@H]([C@@H](C)CC)NC(=O)[C@H](C)NC(=O)[C@H](C)NC(=O)[C@H](CC(C)C)NC(=O)[C@@H]3CSSC[C@@H](C(=O)N[C@@H](Cc4ccc(O)cc4)C(=O)N4CCC[C@H]4C(=O)N[C@@H](CCCNC(=N)N)C(=O)O)NC(=O)[C@H](CCCCN)NC(=O)[C@H](CSSC[C@H](NC(=O)[C@H](CCC(=O)O)NC(=O)[C@H](C(C)C)NC(=O)[C@H](CO)NC(=O)[C@H](C)NC(=O)[C@H](CNC(=N)N)NC1=O)C(=O)N[C@@H](CCCCN)C(=O)N[C@@H](CCC(N)=O)C(=O)N[C@@H](CCCCN)C(=O)N3)NC(=O)[C@H](CCCCN)NC(=O)[C@H](CCCCN)NC(=O)[C@H](CC(N)=O)NC(=O)[C@H](CCCC)NC2=O [Cpd No. 3] (H-P[Nle]E[Nle]RC[Agp]ASVECKQKCLAAIGSIFGKC[Nle]NKKCKCYPR-OH; disulfide 6-27, 12-32, 16-34)
[4]
  IC50: 380 nM
  Selectivity ratio Kv1.2/Kv1.3: 6000
[5]
  IC50: > 3 µM
  Selectivity ratio Kv1.6/Kv1.3: >46000
[6]
  IC50: 0.064 nM
[7]
  IC50: > 3 µM
  Selectivity ratio Kv1.1/Kv1.3: >46000
[8]
  IC50: 0.13 nM

## Vm24 (peptide)
[1]
  Potency IC50 (nM) Kv1.6: 21 nM
  Selectivity Kv1.6/Kv1.3: 139
[2]
  Potency IC50 (nM) Kv1.2: 4.7 nM
  Selectivity Kv1.2/Kv1.3: 31
[9]
  Potency IC50 (nM) Kv1.1: 0.097 nM
  Selectivity Kv1.1/Kv1.3: 0.65
[3]
  Potency IC50 (nM) Kv1.3: 0.15 nM

## Moka1 (peptide)
[1]
  Potency IC50 (nM) Kv1.6: > 3000 nM
  Selectivity Kv1.6/Kv1.3: > 300
[2]
  Potency IC50 (nM) Kv1.2: 275 nM
  Selectivity Kv1.2/Kv1.3: 31
[9]
  Potency IC50 (nM) Kv1.1: > 3000 nM
  Selectivity Kv1.1/Kv1.3: > 300
[3]
  Potency IC50 (nM) Kv1.3: 9 nM

## CCCC[C@H](NC(=O)[C@@H]1CCCN1)C(=O)N[C@@H](CCC(=O)O)C(=O)N[C@@H](CCCC)C(=O)N[C@@H](CCCNC(=N)N)C(=O)N[C@H]1CSSC[C@@H]2NC(=O)[C@H](CCCCN)NC(=O)CNC(=O)[C@H](Cc3ccccc3)NC(=O)[C@H]([C@@H](C)CC)NC(=O)[C@H](CO)NC(=O)CNC(=O)[C@H]([C@@H](C)CC)NC(=O)[C@H](C)NC(=O)[C@H](C)NC(=O)[C@H](CC(C)C)NC(=O)[C@@H]3CSSC[C@@H](C(=O)N[C@@H](Cc4ccc(O)cc4)C(=O)N4CCC[C@H]4C(=O)N[C@@H](CCCNC(=N)N)C(N)=O)NC(=O)[C@H](CCCCN)NC(=O)[C@H](CSSC[C@H](NC(=O)[C@H](CCC(=O)O)NC(=O)[C@H](C(C)C)NC(=O)[C@H](CO)NC(=O)[C@H](C)NC(=O)[C@H](CO)NC1=O)C(=O)N[C@@H](CCCCN)C(=O)N[C@@H](CCC(N)=O)C(=O)N[C@@H](CCCCN)C(=O)N3)NC(=O)[C@H](CCCCN)NC(=O)[C@H](CCCCN)NC(=O)[C@H](CC(N)=O)NC(=O)[C@H](CCCC)NC2=O [compound 13] (H-P[Nle]E[Nle]RCSASVECKQKCLAAIGSIFGKC[Nle]NKKCKCYPR-NH2; disulfide 6-27, 12-32, 16-34)
[10]
  AUC(0-inf): 0.0268 µM·h
  Cmax: 16.5 nM
  half-life: 102 min
[4]
  Selectivity ratio Kv1.2/Kv1.3: 1689
[5]
  Selectivity ratio Kv1.6/Kv1.3: >16200
[7]
  Selectivity ratio Kv1.1/Kv1.3: >16200
[11]
  IC50: 0.34 nM

## ShK-186: H-[phosphotyrosyl][8-Amino-3,6-dioxaoctanoyl]…-NH2 (peptide)
[12]
  IC50 of IL-2 release, anti-CD3 stimulated human PBMCs (Example 5b): 0.05 nM

## CCCC[C@H](NC(=O)[C@@H]1CCCN1)C(=O)N[C@@H](CCC(=O)O)C(=O)N[C@@H](CCCC)C(=O)N[C@@H](CCCNC(=N)N)C(=O)N[C@H]1CSSC[C@@H]2NC(=O)[C@H](CCCCN)NC(=O)CNC(=O)[C@H](Cc3ccccc3)NC(=O)[C@H]([C@@H](C)CC)NC(=O)[C@H](CO)NC(=O)CNC(=O)[C@H]([C@@H](C)CC)NC(=O)[C@H](C)NC(=O)[C@H](C)NC(=O)[C@H](CC(C)C)NC(=O)[C@@H]3CSSC[C@@H](C(=O)N[C@@H](Cc4ccc(O)cc4)C(=O)N4CCC[C@H]4C(=O)N[C@@H](CCCNC(=N)N)C(=O)O)NC(=O)[C@H](CCCCN)NC(=O)[C@H](CSSC[C@H](NC(=O)[C@H](CCC(=O)O)NC(=O)[C@H](C(C)C)NC(=O)[C@H](CO)NC(=O)[C@H](C)NC(=O)[C@H](CCN)NC1=O)C(=O)N[C@@H](CCCCN)C(=O)N[C@@H](CCC(N)=O)C(=O)N[C@@H](CCCCN)C(=O)N3)NC(=O)[C@H](CCCCN)NC(=O)[C@H](CCCCN)NC(=O)[C@H](CC(N)=O)NC(=O)[C@H](CCCC)NC2=O [Cpd No. 1] (H-P[Nle]E[Nle]RC[Dab]ASVECKQKCLAAIGSIFGKC[Nle]NKKCKCYPR-OH; disulfide 6-27, 12-32, 16-34)
[4]
  IC50: 480 nM
  Selectivity ratio Kv1.2/Kv1.3: 17000
[5]
  IC50: > 3 µM
  Selectivity ratio Kv1.6/Kv1.3: >100000
[6]
  IC50: 0.028 nM
[7]
  IC50: > 3 µM
  Selectivity ratio Kv1.1/Kv1.3: >100000
[8]
  IC50: 0.12 nM
[13]
  AUC(0-inf): 0.152 µM·h
  Cmax: 90.8 nM
  half-life: 102 min
